Source: patent US8685977B2, “Chemical compounds” (Pfizer Limited, priority 2010, dated 2014)

Target: T1, Nav1.7 (or SCN9A) channel (Homo sapiens, UniProt Q15858)
T1 construct: expressed in transfected cells
Test: Nav1.7 PatchXpress 7000 automated electrophysiology assay (HEK cells stably expressing hSCN9A)
Type: cell-based
Conditions: voltage-clamped at V1/2 of inactivation, read-out: Nav1.7 EIC50
Summary of the method: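 Automated whole-cell clamp (PatchXpress) of HEK cells stably expressing hSCN9A, at 22-24 °C, in extracellular buffer at pH 7.4. Cells were held at the measured V1/2 of inactivation, then stepped to 0 mV for 20 ms. Single-concentration % inhibition gave EIC50 = concentration × (100 − %inhibition)/%inhibition, excluding <20% or >80%.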

T1 sequence (Q15858 whole entry): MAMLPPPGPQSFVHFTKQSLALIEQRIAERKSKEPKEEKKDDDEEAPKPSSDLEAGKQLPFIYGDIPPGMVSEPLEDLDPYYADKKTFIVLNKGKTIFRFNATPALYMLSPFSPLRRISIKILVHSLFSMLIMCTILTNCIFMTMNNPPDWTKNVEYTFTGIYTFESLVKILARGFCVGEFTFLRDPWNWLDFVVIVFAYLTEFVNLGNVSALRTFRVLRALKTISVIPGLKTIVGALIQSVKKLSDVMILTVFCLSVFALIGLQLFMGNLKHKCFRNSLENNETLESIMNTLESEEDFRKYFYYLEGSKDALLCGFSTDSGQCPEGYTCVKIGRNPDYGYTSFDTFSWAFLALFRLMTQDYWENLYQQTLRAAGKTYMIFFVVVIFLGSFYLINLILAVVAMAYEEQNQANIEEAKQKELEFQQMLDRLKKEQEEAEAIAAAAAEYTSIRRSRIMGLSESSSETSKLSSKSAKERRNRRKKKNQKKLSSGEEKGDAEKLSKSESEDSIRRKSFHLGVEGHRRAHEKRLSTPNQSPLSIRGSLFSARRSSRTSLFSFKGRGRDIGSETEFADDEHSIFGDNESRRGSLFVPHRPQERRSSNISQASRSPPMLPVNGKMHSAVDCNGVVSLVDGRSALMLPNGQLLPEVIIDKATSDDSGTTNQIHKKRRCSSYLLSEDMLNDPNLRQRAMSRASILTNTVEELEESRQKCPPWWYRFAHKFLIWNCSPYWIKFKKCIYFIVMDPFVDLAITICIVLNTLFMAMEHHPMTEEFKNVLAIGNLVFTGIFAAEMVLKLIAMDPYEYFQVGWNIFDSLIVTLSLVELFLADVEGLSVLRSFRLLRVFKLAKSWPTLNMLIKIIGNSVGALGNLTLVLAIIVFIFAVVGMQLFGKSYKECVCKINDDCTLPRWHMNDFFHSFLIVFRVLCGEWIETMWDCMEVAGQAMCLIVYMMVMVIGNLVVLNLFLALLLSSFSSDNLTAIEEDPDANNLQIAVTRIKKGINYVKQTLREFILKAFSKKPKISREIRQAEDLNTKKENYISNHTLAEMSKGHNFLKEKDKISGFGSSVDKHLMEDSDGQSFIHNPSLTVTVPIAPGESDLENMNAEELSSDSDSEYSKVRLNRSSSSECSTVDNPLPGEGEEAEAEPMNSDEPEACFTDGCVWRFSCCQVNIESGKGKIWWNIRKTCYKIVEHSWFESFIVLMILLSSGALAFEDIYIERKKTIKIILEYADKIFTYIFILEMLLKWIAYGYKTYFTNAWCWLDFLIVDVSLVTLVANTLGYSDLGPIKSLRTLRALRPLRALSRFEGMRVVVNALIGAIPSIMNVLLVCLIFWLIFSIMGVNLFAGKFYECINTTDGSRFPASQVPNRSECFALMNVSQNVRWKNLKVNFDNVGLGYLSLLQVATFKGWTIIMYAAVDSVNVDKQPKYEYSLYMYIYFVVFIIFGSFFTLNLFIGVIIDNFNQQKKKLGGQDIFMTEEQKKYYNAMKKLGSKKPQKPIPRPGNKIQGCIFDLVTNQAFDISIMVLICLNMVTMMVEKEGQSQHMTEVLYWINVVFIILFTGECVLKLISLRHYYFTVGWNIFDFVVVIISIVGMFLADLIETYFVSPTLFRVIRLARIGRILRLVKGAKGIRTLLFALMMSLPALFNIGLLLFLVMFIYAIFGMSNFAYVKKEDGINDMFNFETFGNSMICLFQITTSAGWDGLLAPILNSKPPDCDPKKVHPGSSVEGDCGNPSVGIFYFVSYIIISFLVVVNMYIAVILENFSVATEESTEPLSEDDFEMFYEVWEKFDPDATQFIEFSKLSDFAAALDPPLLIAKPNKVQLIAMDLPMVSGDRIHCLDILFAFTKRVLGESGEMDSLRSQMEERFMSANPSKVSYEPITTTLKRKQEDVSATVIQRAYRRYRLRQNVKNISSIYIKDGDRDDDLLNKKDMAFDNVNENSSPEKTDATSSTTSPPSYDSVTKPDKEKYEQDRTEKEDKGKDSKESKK

IC50	Compound
36 µM	CS(=O)(=O)NC(=O)c1ccc(Sc2ccccc2Cl)cc1 [Example 323, 4-(2-chlorophenylthio)-N-(methylsulfonyl)benzamide]
> 3 µM	COc1ccc(Oc2cc(F)c(C(=O)NS(C)(=O)=O)cc2F)c(Cl)c1 [Example 146, 4-(2-chloro-4-methoxyphenoxy)-2,5-difluoro-N-(methylsulfonyl)benzamide]
> 3 µM	Cn1nccc1-c1cc(Cl)ccc1Oc1ccc(C(=O)NS(C)(=O)=O)cc1 [Example 83, 4-(4-chloro-2-(1-methyl-1H-pyrazol-5-yl)phenoxy)-N-(methylsulfonyl)benzamide]
20 µM	Cc1cc(F)ccc1Oc1ccc(C(=O)NS(C)(=O)=O)cc1 [Example 201, 4-(4-fluoro-2-methylphenoxy)-N-(methylsulfonyl)benzamide]
4.8 µM	CCOc1ccc(Oc2ccc(C(=O)NS(C)(=O)=O)cc2C#N)cc1 [Example 265, 3-cyano-4-(4-ethoxyphenoxy)-N-(methylsulfonyl)benzamide]
6.2 µM	COc1cc(F)ccc1Oc1cc(F)c(C(=O)NS(C)(=O)=O)cc1F [Example 69, 2,5-difluoro-4-(4-fluoro-2-methoxyphenoxy)-N-(methylsulfonyl)benzamide]
9.3 µM	COc1cc(Oc2ccc(Cl)cc2OC(F)(F)F)ccc1C(=O)NS(C)(=O)=O [Example 39, 4-[4-chloro-2-(trifluoromethoxy)phenoxy]-2-methoxy-N-(methylsulfonyl)benzamide]
1.3 µM	Cc1ccc(Oc2ccc(C(=O)NS(C)(=O)=O)cc2Cl)cc1 [Example 215, 3-chloro-4-(4-methylphenoxy)-N-(methylsulfonyl)benzamide]
3.2 µM	CS(=O)(=O)NC(=O)c1cc(F)c(Oc2ccccc2OC(F)(F)F)cc1F [Example 103, 2,5-difluoro-N-(methylsulfonyl)-4-[2-(trifluoromethoxy)phenoxy]benzamide]
9.9 µM	CS(=O)(=O)NC(=O)c1cc(Cl)c(Oc2ccc(C(F)(F)F)cc2-c2ccnnc2)cc1F [Example 313, 5-chloro-2-fluoro-N-(methylsulfonyl)-4-[2-pyridazin-4-yl-4-(trifluoromethyl)phenoxy]benzamide]
0.93 µM	CS(=O)(=O)NC(=O)c1ccc(Oc2ccc(Cl)c(C(F)(F)F)c2)cc1 [Example 15, 4-[4-chloro-3-(trifluoromethyl)phenoxy]-N-(methylsulfonyl)benzamide]
> 10 µM	COc1cc(C)ccc1Oc1ccc(C(=O)NS(C)(=O)=O)cc1 [Example 189, 4-(2-methoxy-4-methylphenoxy)-N-(methylsulfonyl)benzamide]
4.1 µM	COc1cc(Oc2ccc(Cl)c(C(F)(F)F)c2)ccc1C(=O)NS(C)(=O)=O [Example 326, 4-(4-chloro-3-(trifluoromethyl)phenoxy)-2-methoxy-N-(methylsulfonyl)benzamide]
0.52 µM	Cc1ccc(Oc2cc(F)c(C(=O)NS(C)(=O)=O)cc2F)cc1Cl [Example 151, 4-(3-chloro-4-methylphenoxy)-2,5-difluoro-N-(methylsulfonyl)benzamide]
> 10 µM	COc1cc(Cl)ccc1Oc1cc(OC)c(C(=O)NS(C)(=O)=O)cc1F [Example 61, 4-(4-chloro-2-methoxyphenoxy)-5-fluoro-2-methoxy-N-(methylsulfonyl)benzamide]
9.3 µM	CS(=O)(=O)NC(=O)c1cc(F)c(Oc2ccccc2F)cc1F [Example 107, 2,5-difluoro-4-(2-fluorophenoxy)-N-(methylsulfonyl)benzamide]
4 µM	COc1cc(Cl)ccc1Oc1cc(F)c(C(=O)NS(C)(=O)=O)cc1F [Example 47, 4-(4-chloro-2-methoxyphenoxy)-2,5-difluoro-N-(methylsulfonyl)benzamide]
1.6 µM	CC(C)c1cccc(Oc2ccc(C(=O)NS(C)(=O)=O)cc2)c1 [Example 181, 4-(3-isopropylphenoxy)-N-(methylsulfonyl)benzamide]
2.5 µM	Cc1ccc(Oc2cc(F)c(C(=O)NS(C)(=O)=O)cc2F)cc1C [Example 141, 4-(3,4-dimethylphenoxy)-2,5-difluoro-N-(methylsulfonyl)benzamide]
> 10 µM	CS(=O)(=O)NC(=O)c1ccc(Oc2ccccc2OCc2ccccc2)cc1 [Example 176, 4-[2-(benzyloxy)phenoxy]-N-(methylsulfonyl)benzamide]
1.6 µM	CS(=O)(=O)NC(=O)c1ccc(Cc2cccc(OC(F)(F)F)c2)cc1 [Example 316, N-(Methylsulfonyl-1)-4-[3-(trifluoromethoxy)benzyl]benzamide]
8.6 µM	CS(=O)(=O)NC(=O)c1ccc(Oc2cccc3ccccc23)c(C#N)c1 [Example 283, 3-cyano-N-(methylsulfonyl)-4-(1-naphthyloxy)benzamide]
14 µM	CS(=O)(=O)NC(=O)c1ccc(Oc2cc(F)cc(F)c2)cc1 [Example 192, 4-(3,5-difluorophenoxy)-N-(methylsulfonyl)benzamide]
2 µM	CS(=O)(=O)NC(=O)c1cc(F)c(Oc2ccc(Cl)cc2Cl)cc1F [Example 123, 4-(2,4-dichlorophenoxy)-2,5-difluoro-N-(methylsulfonyl)benzamide]

IC50	Compound
2.3 µM	Cc1ccccc1Oc1cc(F)c(C(=O)NS(C)(=O)=O)cc1Cl [Example 297, 5-chloro-2-fluoro-4-(2-methylphenoxy)-N-(methylsulfonyl)benzamide]
17 µM	CS(=O)(=O)NC(=O)c1ccc(Oc2cc(F)ccc2F)cc1 [Example 166, 4-(2,5-difluorophenoxy)-N-(methylsulfonyl)benzamide]
0.064 µM	CS(=O)(=O)NC(=O)c1cc(Cl)c(Oc2ccc(Cl)c(Cl)c2)cc1F [Example 2, 5-Chloro-4-(3,4-dichlorophenoxy)-2-fluoro-N-(methylsulfonyl)benzamide]
4.2 µM	Cc1ccc(Oc2ccc(C(=O)NS(C)(=O)=O)cc2F)cc1 [Example 217, 3-fluoro-4-(4-methylphenoxy)-N-(methylsulfonyl)benzamide]
0.032 µM	CS(=O)(=O)NC(=O)c1cc(Cl)c(Oc2ccc(Cl)c(OC(F)(F)F)c2)cc1F [Example 17, 5-chloro-4-[4-chloro-3-(trifluoromethoxy)phenoxy]-2-fluoro-N-(methylsulfonyl)benzamide]
25 µM	Cc1ccc(Oc2ccc(C(=O)NS(C)(=O)=O)cc2)c(Cl)c1 [Example 203, 4-(2-chloro-4-methylphenoxy)-N-(methylsulfonyl)benzamide]
0.86 µM	CS(=O)(=O)NC(=O)c1ccc(Oc2ccc(Cl)c(Cl)c2)cc1F [Example 28, 4-(3,4-dichlorophenoxy)-2-fluoro-N-(methylsulfonyl)benzamide]
2.5 µM	CCOc1ccc(Oc2ccc(C(=O)NS(C)(=O)=O)cc2)cc1 [Example 253, 4-(4-ethoxyphenoxy)-N-(methylsulfonyl)benzamide]
6.6 µM	CS(=O)(=O)NC(=O)c1ccc(Oc2ccccc2C(F)(F)F)c(Cl)c1 [Example 278, 3-chloro-N-(methylsulfonyl)-4-[2-(trifluoromethyl)phenoxy]benzamide]
4.3 µM	CCOc1cccc(Oc2ccc(C(=O)NS(C)(=O)=O)cc2C#N)c1 [Example 281, 3-cyano-4-(3-ethoxyphenoxy)-N-(methylsulfonyl)benzamide]
1.2 µM	CC(C)c1ccc(Oc2ccc(C(=O)NS(C)(=O)=O)cc2)cc1 [Example 173, 4-(4-isopropylphenoxy)-N-(methylsulfonyl)benzamide]
1.1 µM	COc1ccc(Oc2ccc(C(=O)NS(C)(=O)=O)cc2Cl)cc1 [Example 257, 3-chloro-4-(4-methoxyphenoxy)-N-(methylsulfonyl)benzamide]
2.1 µM	CS(=O)(=O)NC(=O)c1ccc(Oc2cccc3ccccc23)c(Cl)c1 [Example 258, 3-chloro-N-(methylsulfonyl)-4-(1-naphthyloxy)benzamide]
> 3 µM	Cc1cc(F)ccc1Oc1cc(F)c(C(=O)NS(C)(=O)=O)cc1F [Example 154, 2,5-difluoro-4-(4-fluoro-2-methylphenoxy)-N-(methylsulfonyl)benzamide]
> 10 µM	COc1ccc(F)cc1Oc1ccc(C(=O)NS(C)(=O)=O)cc1 [Example 188, 4-(5-fluoro-2-methoxyphenoxy)-N-(methylsulfonyl)benzamide]
1.7 µM	CS(=O)(=O)NC(=O)c1ccc(Oc2ccc3ccccc3c2)c(C#N)c1 [Example 269, 3-cyano-N-(methylsulfonyl)-4-(2-naphthyloxy)benzamide]
11 µM	COc1cc(Oc2ccc(F)c(C)c2)ccc1C(=O)NS(C)(=O)=O [Example 216, 4-(4-fluoro-3-methylphenoxy)-2-methoxy-N-(methylsulfonyl)benzamide]
> 1 µM	COc1cc(C)ccc1Oc1cc(F)c(C(=O)NS(C)(=O)=O)cc1F [Example 85, 2,5-difluoro-4-(2-methoxy-4-methylphenoxy)-N-(methylsulfonyl)benzamide]
0.43 µM	CS(=O)(=O)NC(=O)c1cc(Cl)c(Oc2ccc(Cl)cc2OC(F)F)cc1F [Example 11, 5-chloro-4-[4-chloro-2-(difluoromethoxy)phenoxy]-2-fluoro-N-(methylsulfonyl)benzamide]
0.43 µM	O=C(NS(=O)(=O)C1CC1)c1ccc(Oc2ccc(Cl)cc2)cc1 [Example 26, 4-(4-chlorophenoxy)-N-(cyclopropylsulfonyl)benzamide]
6.6 µM	CS(=O)(=O)NC(=O)c1cc(F)c(Oc2cccc(C(F)(F)F)c2)cc1F [Example 138, 2,5-difluoro-N-(methylsulfonyl)-4-[3-(trifluoromethyl)phenoxy]benzamide]
6.8 µM	Cc1cccc(Oc2cc(F)c(C(=O)NS(C)(=O)=O)cc2F)c1 [Example 157, 2,5-difluoro-4-(3-methylphenoxy)-N-(methylsulfonyl)benzamide]
1.3 µM	CS(=O)(=O)NC(=O)c1ccc(Oc2ccc(-c3ccccc3)cc2)cc1 [Example 245, 4-(biphenyl-4-yloxy)-N-(methylsulfonyl)benzamide]
